According to ChEMBL document CHEMBL4602659, “β,β-Dimethylacrylshikonin Induces Apoptosis in Melanoma Cell Lines by NOXA Upregulation” (J Nat Prod, 2020):
Activity calls are given as the source filed them. No cut-off for these calls is given here.

Assays:
MUGMel2 [1] = test: Cytotoxicity against human MUGMel2 cells harboring NRAS pQ61K mutant assessed as reduction in cell viability after 24 hrs by EZ4U reagent based spectrophotometric method; type: functional; conditions: MUGMel2, 24 h
MUGMel2 [2] = test: Cytotoxicity against human MUGMel2 cells harboring NRAS pQ61K mutant assessed as reduction in cell viability after 48 hrs by EZ4U reagent based spectrophotometric method; type: functional; conditions: MUGMel2, 48 h
SBcl2 [3] = test: Cytotoxicity against human SBcl2 cells harboring NRAS Q61I mutant assessed as reduction in cell viability after 48 hrs by EZ4U reagent based spectrophotometric method; type: functional; conditions: SBcl2, 48 h
MRC5 [4] = test: Cytotoxicity against human MRC5 cells assessed as reduction in cell viability after 48 hrs by EZ4U reagent based spectrophotometric method; type: functional
MRC5 [5] = test: Cytotoxicity against human MRC5 cells assessed as reduction in cell viability after 72 hrs by EZ4U reagent based spectrophotometric method; type: functional
MUGMel1 [6] = test: Induction of apoptosis in human MUGMel1 cells assessed as early apoptotic cells at IC50 concentration after 6 hrs by Annexin V/SYTOX Green based flow cytometric analysis (reference value: 2.55%); type: functional
MUGMel1 [7] = test: Induction of apoptosis in human MUGMel1 cells assessed as necrotic cells at IC50 concentration after 6 hrs by Annexin V/SYTOX Green based flow cytometric analysis (reference value: 0.39%); type: functional
SBcl2 [8] = test: Induction of apoptosis in human SBcl2 cells assessed as late apoptotic cells at IC50 concentration after 6 hrs by Annexin V/SYTOX Green based flow cytometric analysis (reference value: 14.91%); type: functional
SBcl2 [9] = test: Induction of apoptosis in human SBcl2 cells assessed as necrotic cells at IC50 concentration after 6 hrs by Annexin V/SYTOX Green based flow cytometric analysis (reference value: 0.17%); type: functional
WM164 [10] = test: Induction of apoptosis in human WM164 cells assessed as viable cells at IC50 concentration after 6 hrs by Annexin V/SYTOX Green based flow cytometric analysis (reference value: 94.77%); type: functional
WM164 [11] = test: Induction of apoptosis in human WM164 cells assessed as late apoptotic cells at IC50 concentration after 6 hrs by Annexin V/SYTOX Green based flow cytometric analysis (reference value: 1.41%); type: functional
MUGMel2 [12] = test: Induction of apoptosis in human MUGMel2 cells assessed as viable cells at IC50 concentration after 24 hrs by Annexin V/SYTOX Green based flow cytometric analysis (reference value: 85.95%); type: functional
SBcl2 [13] = test: Induction of apoptosis in human SBcl2 cells assessed as late apoptotic cells at IC50 concentration after 24 hrs by Annexin V/SYTOX Green based flow cytometric analysis (reference value: 22.96%); type: functional
WM164 [14] = test: Induction of apoptosis in human WM164 cells assessed as early apoptotic cells at IC50 concentration after 24 hrs by Annexin V/SYTOX Green based flow cytometric analysis (reference value: 2.72%); type: functional
WM164 [15] = test: Induction of apoptosis in human WM164 cells assessed as necrotic cells at IC50 concentration after 24 hrs by Annexin V/SYTOX Green based flow cytometric analysis (reference value: 0.85%); type: functional
[16] = Cytotoxicity against human A375-S2 cells assessed as reduction in cell viability after 48 hrs by MTT assay; type: functional, cell-based; conditions: A375-S2, 48 h
B16-F0 = test: Cytotoxicity against mouse B16F0 cells assessed as reduction in cell viability after 24 hrs by MTT assay; type: functional, cell-based; conditions: B16F0, 24 h
MUGMel1 [17] = test: Induction of apoptosis in human MUGMel1 cells assessed as increase in caspase -3 activity at IC50 concentration after 24 hrs in presence of caspase -inhibitor by Alexa Fluor 647 antibody based flow cytometric analysis; type: functional, cell-based
SBcl2 [18] = test: Antitumour activity against human SBcl2 cells xenografted in NU(NCr)-Foxn1 mouse assessed as increase in caspase -activity at 2 ug/g administered for three consecutive days with 1 day interval for four cycle by hematoxylin and eosin staining based microscopic analysis; type: functional, cell-based
WM164 [19] = test: Antitumour activity against human WM164 cells xenografted in NU(NCr)-Foxn1 mouse assessed as increase in caspase -activity at 1 to 4 ug/g administered for three consecutive days with 1 day interval for four cycle by hematoxylin and eosin staining based microscopic analysis; type: functional, cell-based
MUGMel1 [20] = test: Induction of apoptosis in human MUGMel1 cells assessed as up regulation of NOXA protein expression at IC50 concentration after 24 hrs by Western blot analysis; type: functional, cell-based
WM164 [21] = test: Induction of apoptosis in human WM164 cells assessed as effect on BAD mRNA expression at IC50 concentration after 6 to 24 hrs by RT-qPCR analysis; type: functional, cell-based
MUGMel1 [22] = test: Induction of apoptosis in human MUGMel1 cells assessed as effect on BAX mRNA expression at IC50 concentration after 6 to 24 hrs by RT-qPCR analysis; type: functional, cell-based
SBcl2 [23] = test: Induction of apoptosis in human SBcl2 cells assessed as up regulation of BCL2 at IC50 concentration after 6 to 24 hrs by RT-qPCR analysis; type: functional, cell-based
WM793 [24] = test: Induction of apoptosis in human WM793 cells assessed as up regulation of NOXA at IC50 concentration after 6 to 24 hrs by RT-qPCR analysis; type: functional, cell-based
MUGMel2 [25] = test: Induction of apoptosis in human MUGMel2 cells assessed as up regulation of NOXA at IC50 concentration after 6 to 24 hrs by RT-qPCR analysis relative to control; type: functional
WM793 [26] = test: Induction of apoptosis in human WM793 cells assessed as effect on PUMA protein expression at IC50 concentration after 24 hrs by Western blot analysis; type: functional, cell-based
WM793 [27] = test: Induction of apoptosis in human WM793 cells assessed as effect on BAX protein expression at IC50 concentration after 24 hrs by Western blot analysis; type: functional, cell-based
WM164 [28] = test: Induction of apoptosis in human WM164 cells assessed as effect on BAX protein expression at IC50 concentration after 24 hrs by Western blot analysis; type: functional, cell-based
SBcl2 [29] = test: Induction of apoptosis in human SBcl2 cells assessed as effect on BAX protein expression at IC50 concentration after 24 hrs by Western blot analysis; type: functional, cell-based
MUGMel2 [30] = test: Induction of apoptosis in human MUGMel2 cells assessed as effect on PUMA protein expression at IC50 concentration after 24 hrs by Western blot analysis; type: functional, cell-based
WM164 [31] = test: Antitumour activity against human WM164 cells xenografted in NU(NCr)-Foxn1 mouse assessed as increase in fibrosis at 1 to 4 ug/g administered for three consecutive days with 1 day interval for four cycle by hematoxylin and eosin staining based microscopic analysis; type: functional, cell-based
[32] = Toxicity in NU(NCr)-Foxn1 mouse xenografted with SBcl2 assessed as weight loss at 2 ug/g administered for three consecutive days with 1 day interval for four cycle; conditions: in vivo
SBcl2 [33] = test: Antitumour activity against human SBcl2 cells xenografted in NU(NCr)-Foxn1 mouse assessed as decrease in tumour size at 2 ug/g administered for three consecutive days with 1 day interval for four cycle; type: functional, cell-based
WM164 [34] = test: Antitumour activity against human WM164 cells xenografted in NU(NCr)-Foxn1 mouse assessed as decrease in tumour size at 2 ug/g administered for three consecutive days with 1 day interval for four cycle; type: functional, cell-based

SMILES: CC(C)=CC[C@@H](OC(=O)C=C(C)C)C1=CC(=O)c2c(O)ccc(O)c2C1=O [DIMETHYLACRYLSHIKONIN]
- IC50 (MUGMel2 [1]): 5.1 µM
- IC50 (MUGMel2 [2]): 2.3 µM
- IC50 (SBcl2 [3]): 1.1 µM
- IC50 (MRC5 [4]): Not Active
- IC50 (MRC5 [5]): Not Active
- Activity (MUGMel1 [6]): 3.51%
- Activity (MUGMel1 [7]): 0.11%
- Activity (SBcl2 [8]): 70.21%
- Activity (SBcl2 [9]): 0.06%
- Activity (WM164 [10]): 88.63%
- Activity (WM164 [11]): 8.65%
- Activity (MUGMel2 [12]): 45.04%
- Activity (SBcl2 [13]): 77.12%
- Activity (WM164 [14]): 12.85%
- Activity (WM164 [15]): 0.52%
- IC50 [16]: 7.1 µM
- IC50 (B16-F0): 1.2 to 5.1 µM
- Activity (MUGMel1 [17]): inactive
- Activity (SBcl2 [18]): Active
- Activity (WM164 [19]): Active
- Activity (MUGMel1 [20]): Active
- Activity (WM164 [21]): inactive
- Activity (MUGMel1 [22]): inactive
- Activity (SBcl2 [23]): Active
- Activity (WM793 [24]): inactive
- fold change (FC) (MUGMel2 [25]): 6
- Activity (WM793 [26]): inactive
- Activity (WM793 [27]): inactive
- Activity (WM164 [28]): inactive
- Activity (SBcl2 [29]): inactive
- Activity (MUGMel2 [30]): inactive
- Activity (WM164 [31]): Active
- Activity [32]: Non-Toxic
- Activity (SBcl2 [33]): inactive
- Activity (WM164 [34]): inactive
